From patent US6747050B1, “Isoxazoline derivative and a process for the preparation thereof” (LG Chem Investment Ltd., priority 1999, dated 2004)

Tests used:
caspase-1 = biological target: T1, caspase-1 (Homo sapiens, UniProt P29466); assay: Recombinant caspase enzyme inhibition, fluorogenic substrate Ac-YVAD-AMC; format: biochemical; details: Reversible Inhibitor
T1 construct: made in house; host or cells: transformed bacterium (pET vector)
T1 sequence (P29466 120-297 limits assumed): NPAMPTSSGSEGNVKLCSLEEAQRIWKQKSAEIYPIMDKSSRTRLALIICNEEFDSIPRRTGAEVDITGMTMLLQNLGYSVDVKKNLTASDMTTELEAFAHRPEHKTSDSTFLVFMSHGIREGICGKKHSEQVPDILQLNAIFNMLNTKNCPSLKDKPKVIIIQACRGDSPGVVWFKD
T1 sequence (P29466 317-404 limits assumed): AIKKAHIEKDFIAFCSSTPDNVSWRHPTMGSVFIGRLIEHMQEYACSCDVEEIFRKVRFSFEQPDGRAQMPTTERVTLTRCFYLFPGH
Protocol: In the present experiment recombinant caspases were purified from a transformed bacterium after human caspase genes were cloned into the expression vector pET, and then used in the experiment (Thornberry, N. A. et al. Nature, 1992, 356, 768. Thornberry, N. A. Methods in Enzymology, 1994, 615.).
Enzymatic activity was measured by a known procedure (Walker N. P. C. et al., Cell 1994, 78, 343). Briefly, 10 ng of recombinant protein was mixed with 50 mM Tris(pH 7.0), 1 mM DTT, 0.5 mM EDTA, 10% Glycerol buffer containing 1˜100 μM of enzyme substrate, Ac-YVAD-AMC or Ac-DEVD-AMC and then the changes by isolated AMC at 37° C. were recorded. The inhibitory activity for caspases was calculated from the early enzyme reaction rate by measuring the changes with fluorescence excited at […] and emitted at 460 nm (Range; Ki<100 nM).

[1] = system: caspase-3-like activity (Ac-DEVD-pNA); assay: Caspase-3-like activity in TNFα/ActD-treated primary rat hepatocytes; format: cell-based; details: 100 μM, 8 hrs
Protocol: Primary rat hepatocytes were isolated and purified from male Sprague-Dawley rats using a collagenase digestion method. The hepatocytes were purified over 30% Percoll gradient by centrifugation at 1,000×g for 10 min. at 4° C. […] The cells were plated on collagen-coated tissue culture plates at a density of 2×10^5 cells/well in 12-well plates for cell viability analysis or 5×10^6 cells/100 mm dish for enzyme assays. After 18 hrs preculture, the cells were treated with 2,000 units/ml TNFα and 0.2 μg/ml Actinomycin (ActD). Caspase activity and cell viability was determined by colorimetry using a caspase substrate Ac-DEVD-pNA and crystal violet staining method at 8 hrs and 12 hrs, respectively.

[2] = system: W138 cells (human embryonal lung fibroblast); assay: Protection from IFNγ and anti-Fas antibody-induced apoptosis (XTT); format: cell-based; details: IFNγ 200 units/ml + anti-Fas antibody 40 ng/well; for cell viability (control without Fas antibody = 100%): 50 μM, 50 µM; for viability at 0.4 µM / viability at 2 µM / viability at 10 µM / viability at 50 µM: Homo sapiens, read-out: cell viability (control without Fas antibody = 100%); for viability at 0.4 µM: W138, 0.4 μM; for viability at 2 µM: W138, 2 μM; for viability at 10 µM: W138, 10 μM; for viability at 50 µM: W138, 50 μM
Protocol: W138 cells (human embryonal lung fibroblast) were grown in a medium containing DMEM-10% FBS within, 10 cm diameter dishes until reaching at confluency. The cells were seeded into a 24-well plate at day 1 and incubated overnight while the volume of medium was maintained to 400 μl. Cells were treated with 200 units/ml of IFNγ at day 2 and incubated over 12 hrs or more. At day 3, each 100 μl of test compound was added to the cells after diluting the 10 mM stock compound in DMSO to final concentrations of 50, 10, 2, and 0.4 μM, respectively. The cells were incubated for 2 hrs in order for allowing the compound to enter into the cells and then treated with 40 ng/well of anti-Fas antibody(apoptosis was induced 2 hrs after antibody was treated and the incubation was continued overnight). The control was not treated with Fas antibody. […] After coloring, 100-200 μl of the supernatant was transferred to a 96-well plate and the absorbance at 490 nm was read with ELISA plate reader. For the blank, XTT solution was added to the well continued the medium only. Plotting was determined by comparing with the control group (100% when Fas antibody was not treated).

Compound CCCC1(C(=O)N[C@@H](CC(=O)O)C(=O)COc2ccccc2)CC([C@@H](NC(=O)CCC(=O)O)C(C)C)=NO1 (mixture of isomers) [Compound 83, (3S)-3-{3-[2-Methyl-(1S)-1-(succinoylamino)-propyl]-5-propyl-4,5-dihydro-isoxazole-5-carbonylamino}-4-keto-5-phenoxy-pentanoic Acid] has a Ki (caspase-1) of 969 nM.
For CC(=O)N[C@@H](CC(=O)O)C(=O)N[C@@H](CCC(=O)O)C(=O)N[C@H](C(=O)N[C@H](C=O)CC(=O)O)C(C)C [Ac-DEVD-CHO], the “caspase-3-like activity increased by TNFα/ActD (FIG. 15A)” value [1] was “not different”.
CC(C)[C@H](NC(=O)CCC(=O)O)C1=NOC(C)(C(=O)N[C@@H](CC(=O)O)C(=O)COc2ccccc2)C1 (mixture of isomers) [Compound 47, (3S)-3-{3-[2-Methyl-(1S)-1-(succinoylamino)-propyl]-5-methyl-4,5-dihydro-isoxazole-5-carbonylamino}-4-keto-5-phenoxy-pentanoic Acid] gave a Ki (caspase-1) of 177 nM.
In the case of CC1(C(=O)N[C@@H](CC(=O)O)C(=O)COc2ccccc2)CC([C@H](CCC(=O)O)NC(=O)CCC(=O)O)=NO1 (mixture of isomers) [Compound 46, (3S)-3-{3-[(1S)-1-(Succinoylamino)-3-carboxy-propyl]-5-methyl-4,5-dihydro-isoxazole-5-carbonylamino}-4-keto-5-phenoxy-pentanoic Acid], the Ki (caspase-1) is reported as 29.1 nM.
With CC(C)[C@H](NC(=O)CCC(=O)O)C1=NOC(C)(C(=O)N[C@@H](CC(=O)O)C(=O)COc2ccc3ccccc3c2)C1 (single isomer, unassigned) [Compound 82] the Ki (caspase-1) was 530 nM.
CC(C)[C@H](NC(=O)c1ccc2ccccc2c1)C1=NOC(C(=O)N[C@@H](CC(=O)O)C(=O)COc2ccc3ccccc3c2)C1 (stereo partly drawn) [Compound 29, (3S)-3-{3-[(1S)-1-(Naphthalene-2-carbonylamino)-2-methyl-propyl]-4,5-dihydro-isoxazole-5-carbonylamino}-4-keto-5-(2-naphthyloxy)-pentanoic Acid] gave a Ki (caspase-1) of 0.324 nM.
CC(C)[C@H](NC(=O)c1ccc2ccccc2c1)C1=NOC(C(=O)N[C@@H](CC(=O)O)C(=O)COc2ccccc2)C1 (stereo partly drawn) [Compound 30, (3S)-3-{3-[2-Methyl-(1S)-1-(2-naphthalenecarbonylamino)-propyl]-4,5-dihydro-isoxazole-5-carbonylamino}-4-keto-5-phenoxy-pentanoic Acid] gave a Ki (caspase-1) of 19.1 nM.
With CC(=O)[C@H](CC(=O)O)NC(=O)C1(COc2ccccc2)CC([C@@H](NC(=O)c2ccc3ccccc3n2)C(C)C)=NO1 (mixture of isomers) [Compound 22, (3S)-3-{3-[(1S)-1-(Quinoline-2-yl-carbonylamino)-2-methyl-propyl]-5-phenoxymethyl-4,5-dihydro-isoxazole-5-carbonylamino}-4-keto-pentanoic Acid] the “cell viability (control without Fas antibody = 100%)” value [2] was 78.29%, the viability at 0.4 µM [2] was 14.4% and the viability at 2 µM [2] was 18.3%. For the same compound, the viability at 10 µM [2] was 35.4% and the viability at 50 µM [2] was 78%.
CC(C)[C@H](NC(=O)CCC(=O)O)C1=NOC(C)(C(=O)N[C@@H](CC(=O)O)C(=O)COc2ccc3ccccc3c2)C1 (single isomer, unassigned) [Compound 81] showed a Ki (caspase-1) of 26900 nM.
With CC(C)[C@H](NC(=O)c1ccc2ccccc2c1)C1=NOC(Cc2ccccc2)(C(=O)N[C@@H](CC(=O)O)C(=O)COC(=O)c2c(Cl)cccc2Cl)C1 (stereo partly drawn) [Compound 28, (3S)-3-{3-[(1S)-1-(Naphthalene-2-carbonylamino)-2-methyl-propyl]-5-phenylmethyl-4,5-dihydro-isoxazole-5-carbonylamino}-4-keto-5-(2,6-dichlorobenzoyloxy)-pentanoic Acid] the “cell viability (control without Fas antibody = 100%)” value [2] was 90.39%, the viability at 0.4 µM [2] was 14.7% and the viability at 2 µM [2] was 17.3%. The viability at 10 µM [2] was 82.4% and the viability at 50 µM [2] was 90%.
CC(C)[C@H](NC(=O)c1cccc2ccccc12)C1=NOC(Cc2ccccc2)(C(=O)N[C@@H](CC(=O)O)C(=O)CN2CCCCC2)C1 (stereo partly drawn) [Compound 48, (3S)-3-{3-[2-Methyl-(1S)-1-(1-naphtalenycarbonylamino)-propyl]-5-phenylmethyl-4,5-dihydro-isoxazole-5-carbonylamino}-4-keto-5-(1-piperidinyl)-pentanoic Acid] gave a Ki (caspase-1) of 1.51 nM.
CC(C)[C@H](NC(=O)CCC(=O)O)C1=NOC(C)(C(=O)N[C@@H](CC(=O)O)C(=O)CN2CCCC2)C1 (stereo partly drawn) [Compound 78, (3S)-3-{3-[2-methyl-(1S)-1-(succinoylamino)-propyl]-5-methyl-4,5-dihydro-isoxazole-5-cabonylamino}-4-keto-5-(N-pyrrolidine)-pentanoic acid] was tested, and the Ki (caspase-1) was 63900 nM.
